For 41 molecules, IC50 results are on record in US8008292B2, “Condensed benzamide compounds and inhibitors of vanilloid receptor subtype 1 (VR1) activity” (Japan Tobacco Inc., priority 2004, dated 2011).

The target in this experiment is T1, human VR1 (Homo sapiens, UniProt Q8NER1).
T1 construct: expressed in transfected cells
T1 sequence (Q8NER1 whole entry): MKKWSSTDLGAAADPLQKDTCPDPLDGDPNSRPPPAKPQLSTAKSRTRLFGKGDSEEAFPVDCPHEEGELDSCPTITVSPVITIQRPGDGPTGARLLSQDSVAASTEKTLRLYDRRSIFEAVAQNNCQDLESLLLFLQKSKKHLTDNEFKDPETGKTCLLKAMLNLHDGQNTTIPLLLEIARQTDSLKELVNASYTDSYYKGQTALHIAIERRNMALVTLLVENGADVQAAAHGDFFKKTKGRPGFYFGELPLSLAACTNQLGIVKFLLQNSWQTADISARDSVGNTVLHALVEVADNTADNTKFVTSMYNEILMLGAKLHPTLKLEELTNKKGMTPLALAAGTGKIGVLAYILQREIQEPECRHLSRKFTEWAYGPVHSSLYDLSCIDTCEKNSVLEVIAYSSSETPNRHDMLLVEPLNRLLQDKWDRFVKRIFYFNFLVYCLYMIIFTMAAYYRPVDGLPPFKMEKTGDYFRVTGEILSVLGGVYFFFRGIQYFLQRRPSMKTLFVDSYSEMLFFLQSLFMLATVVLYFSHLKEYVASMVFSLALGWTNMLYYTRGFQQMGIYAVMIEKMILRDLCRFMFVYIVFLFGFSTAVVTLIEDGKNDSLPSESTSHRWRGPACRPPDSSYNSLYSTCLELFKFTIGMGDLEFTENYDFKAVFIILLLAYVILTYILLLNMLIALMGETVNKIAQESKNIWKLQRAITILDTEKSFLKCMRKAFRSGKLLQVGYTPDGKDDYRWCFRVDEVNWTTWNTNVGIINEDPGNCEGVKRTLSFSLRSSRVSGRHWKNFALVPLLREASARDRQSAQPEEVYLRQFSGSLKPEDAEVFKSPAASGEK
Put plainly: Inhibition of Ca2+ entry in cells caused by proton, in rat glioma (C6BU1) cells stably expressing human VR1 (Fura 2 fluorescence). The format is cell-based. The settings on record: inhibition of proton-induced Ca2+ entry. In outline:
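Fura 2-loaded C6BU1 cells in 20 mM MES buffer pH 6.8 with added Ca2+ were preincubated 10 min with compound (final 1 μM to 0.1 nM, 1% DMSO). Proton stimulation brought pH to 5.5. Fluorescence rise was measured, and IC50 was derived from % inhibition versus DMSO control.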
In general, IC50 refers to the concentration needed to halve the response being measured. For `Cc1ccc(N2c3cccc(C(=O)Nc4ccc(C(F)(F)F)cc4)c3OC[C@@H]2CO)nc1` [Example 4-08, (S)-4-(5-picoline-2-yl)-3-hydroxylmethyl-N-(4-trifluoromethylphenyl)-3,4-dihydro-2H-benzo[1,4]oxazine-8-carboxamide], the IC50 is under 100 nM.

For `CC(C)c1ccc(NC(=O)c2cccc3c2OCCN3c2ncc(CO)cc2Cl)cc1` [Example 2-46], the IC50 was under 100 nM.

On to `COc1ccc(NC(=O)c2cccc3c2OC[C@H](CO)N3c2ccc(C)cn2)cc1C(F)(F)F` [Example 4-28], for which the IC50 is under 100 nM.

For `CC(C)(O)c1cnc(N2CCOc3c(C(=O)Nc4ccc(C(F)(F)F)cc4)cccc32)c(Cl)c1` [Example 1-129], the IC50 is under 100 nM.

The molecule `O=C(Nc1ccc(Br)c(F)c1)c1cccc2c1OC[C@H](CO)N2c1ncccc1Cl` [Example 4-36] displayed an IC50 of under 100 nM.

For the molecule `CC(C)(C)c1ccc(NC(=O)c2cccc3c2OCCN3c2ncc(CO)cc2Cl)cc1` [Example 2-36], the IC50 is under 100 nM.

For `NC(=O)c1cnc(N2CCOc3c(C(=O)Nc4ccc(OC(F)(F)F)cc4)cccc32)c(Cl)c1` [Example 1-227], the IC50 was under 100 nM.

Consider `COc1ccc(N2CCOc3c(C(=O)Nc4ccc(OCC(C)C)cc4)cccc32)cc1` [Example 7-02, N-(4-isobutyloxyphenyl)-4-(4-methoxyphenyl)-3,4-dihydro-2H-benzo[1,4]oxazine-8-carboxamide], for which the IC50 is under 100 nM.

As for `O=C(Nc1ccc(Cl)cc1)c1cccc2c1OC[C@H](CO)N2c1ccc(Cl)cc1` [Example 7-11], the IC50 is under 100 nM.

`CC(C)Oc1ccc(NC(=O)c2cccc3c2OCCN3c2ncccc2Cl)cc1` [Example 1-007] displayed an IC50 of under 100 nM.

In the case of `Cc1ccc(N2CCOc3c(C(=O)Nc4ccc(C)c(F)c4)cccc32)nc1` [Example 1-092], the IC50 is under 100 nM.

Molecule `Cc1cnc(N2c3cccc(C(=O)Nc4ccc(C(F)(F)F)cc4)c3OC[C@@H]2CO)s1` [Example 6-2, (S)-3-hydroxymethyl-4-(5-methylthiazol-2-yl)-N-(4-trifluoromethylphenyl)-3,4-dihydro-2H-benzo[1,4]oxazine-8-carboxamide] came in with an IC50 of under 100 nM.

The molecule `CC1CN(c2ncccc2Cl)c2cccc(C(=O)Nc3ccc(C(C)(C)C)cc3)c2O1` (centres unmarked) [Example 1-019] came in with an IC50 of 100 to 1000 nM.

In turn, `O=C(Nc1ccc(Cl)cc1)c1cccc2c1OCCN2c1ncccc1Cl` [Example 1-006] had an IC50 of under 100 nM.

For the molecule `CCOc1cc(NC(=O)c2cccc3c2OCCN3c2ccc(C)cn2)ccc1C` [Example 1-087], the IC50 is under 100 nM.

`CC(=O)NC[C@H]1COc2c(C(=O)Nc3ccc(C(F)(F)F)cc3)cccc2N1c1ncccc1Cl` [Example 1-228]: the IC50 is under 100 nM.

`Cc1cnc(N2c3cccc(C(=O)Nc4ccc(OC(C)C)c(F)c4)c3OC[C@@H]2CO)s1` [Example 6-4] came in with an IC50 of under 100 nM.

The molecule `CC(C)(C)c1ccc(NC(=O)c2cccc3c2OCCN3c2ccccn2)cc1` [Example 1-016] gave an IC50 of under 100 nM.

In turn, `Cc1ccc(N2CCOc3c(C(=O)Nc4ccc(Cl)c(C(C)(C)C)c4)cccc32)nc1` [Example 1-081] showed an IC50 of under 100 nM.

In the case of `O=C(Nc1ccc(F)c(C(F)(F)F)c1)c1cccc2c1OCCN2c1ncccc1Cl` [Example 1-053], the IC50 was under 100 nM.

In turn, `Cc1ccc(N2CCOc3c(C(=O)Nc4ccc(C)c(OCCO)c4)cccc32)nc1` [Example 1-173] gave an IC50 of under 100 nM.

`Cc1ccc(N2c3cccc(C(=O)Nc4ccc(Cl)c(Cl)c4)c3OC[C@@H]2CO)nc1` [Example 4-32] yielded an IC50 of under 100 nM.

In turn, `CC(C)CNc1ccc(NC(=O)c2cccc3c2OCCN3c2ncccc2Cl)cc1F` [Example 1-104] came in with an IC50 of under 100 nM.

`O=C(Nc1ccc(N2CCCCC2)c(C(F)(F)F)c1)c1cccc2c1OC[C@H](CO)N2c1ncccc1Cl` [Example 4-22] had an IC50 of under 100 nM.

Consider `CCOc1ccc(NC(=O)c2cccc3c2OCCN3c2ccc(C)cn2)cc1F` [Example 1-086], for which the IC50 was under 100 nM.

In the case of `Cc1ccc(N2CCOc3c(C(=O)Nc4ccc(Cl)cc4)cccc32)nc1` [Example 1-091], the IC50 is under 100 nM.

Molecule `O=C(Nc1ccc(C(F)(F)F)cc1)c1cccc2c1OCCN2c1ncccc1Cl` [Example 1-100] displayed an IC50 of under 100 nM.

For `O=C(Nc1ccc(Cl)c(C(F)(F)F)c1)c1cccc2c1OCCN2c1ncccc1Cl` [Example 1-025], the IC50 was under 100 nM.

For the molecule `COC1CCN(c2ccc(NC(=O)c3cccc4c3OCCN4c3ccc(C)cn3)cc2F)C1` (centres unmarked) [Example 1-072], the IC50 is under 100 nM.

Regarding `O=C(Nc1ccc(C(F)(F)F)nc1)c1cccc2c1OCCN2c1ncccc1Cl` [Example 1-030], the half-maximal inhibitory concentration (IC50) was under 100 nM.

`COc1ccc(N2CCOc3c(C(=O)Nc4ccc(Cl)cc4)cccc32)cc1` [Example 7-03, N-(4-chlorophenyl)-4-(4-methoxyphenyl)-3,4-dihydro-2H-benzo[1,4]oxazine-8-carboxamide] registered an IC50 of under 100 nM.

In turn, `CC(C)(C)c1ccc(NC(=O)c2cccc3c2OCCN3c2ccc([N+](=O)[O-])cn2)cc1` [Example 1-140] came in with an IC50 of under 100 nM.

For `COC(=O)c1ccc(N2CCOc3c(C(=O)Nc4ccc(C(C)(C)C)cc4)cccc32)nc1` [Example 1-132], the IC50 lay in the range of 100 to 1000 nM.

Molecule `O=C(Nc1ccc(N2CCCCC2)c(F)c1)c1cccc2c1OCCN2c1ncc(CO)cc1Cl` [Example 2-35] returned an IC50 of under 100 nM.

On to `COc1ccc(N2c3cccc(C(=O)Nc4ccc(OC(F)(F)F)cc4)c3OC[C@@H]2CO)cc1` [Example 7-08], for which the IC50 is under 100 nM.

`O=C(Nc1ccc(OC(F)(F)F)cc1)c1cccc2c1OC[C@H](CO)N2c1ccccc1Cl` [Example 7-04, (S)-4-(2-chlorophenyl)-3-hydroxymethyl-N-(4-trifluoromethoxyphenyl)-3,4-dihydro-2H-benzo[1,4]oxazine-8-carboxamide] yielded an IC50 of under 100 nM.

`Cc1ccc(N2c3cccc(C(=O)Nc4ccc(C(F)(F)F)cc4Cl)c3OC[C@@H]2CO)nc1` [Example 4-40] had an IC50 of under 100 nM.

`CC(O)c1cnc(N2CCOc3c(C(=O)Nc4ccc(C(F)(F)F)cc4)cccc32)c(Cl)c1` (single isomer, unassigned; (-)) [Example 2-13, (−)-N-(4-trifluoromethylphenyl)-4-{3-chloro-5-(1-hydroxyethyl)pyridin-2-yl}-3,4-dihydro-2H-benzo[1,4]oxazine-8-carboxamide] yielded an IC50 of under 100 nM.

In turn, `O=C(Nc1ccc(C(F)(F)F)cc1)c1cccc2c1OCCN2c1ccc(Cl)cn1` [Example 1-123] yielded an IC50 of under 100 nM.

With `COCc1cnc(N2CCOc3c(C(=O)Nc4ccc(C(F)(F)F)cc4)cccc32)c(Cl)c1` [Example 2-09, 4-(3-chloro-5-methoxymethylpyridin-2-yl)-N-(4-trifluoromethylpheny)-3,4-dihydro-2H-benzo[1,4]oxazine-8-carboxamide], the IC50 is under 100 nM.

In the case of `Cc1ccc(N2CCOc3c(C(=O)Nc4ccc(OC5CCN(C(=O)OC(C)(C)C)CC5)c(F)c4)cccc32)nc1` [Example 1-174], the IC50 is under 100 nM.
